Data reported in PMC12703741, “Light-Activated Metal-Dependent Protein Degradation: A Heterobifunctional Ruthenium(II) Photosensitizer Targeting New Delhi Metallo-β-lactamase 1” (Journal of the American Chemical Society, 2025).
Like-named read-outs stand apart in the source and are kept apart here.

How the values were obtained:
[1] = Photostability by UV-Vis in PBS; assay type: physicochemical; conditions: 10 μM, 450 nm
Experimental: Both complexes were stable up to and including 23 J cm^–2 (Figure S5). The lifetime of the excited state is one of the key factors which affect ROS generation. […] To quantify the generation of ^1O2 produced by the complexes, 1,3-diphenylisobenzofuran (DPBF) was used as a ^1O2 scavenger. […]
spectra of both compounds in PBS ( 10 μM) under light irradiation (450 nm, 23 J cm -2 over 240 […]
1.2.4 Electron Paramagnetic Resonance (EPR)
All EPR measurements were performed using a Bruker Magnettech spectrometer (ESR5000), Bruker (Germany), at room temperature. EPR samples were transferred to a 20 μL BLAUBRAND micropipette and spectra were recorded at 9.47 GHz microwave frequency, 2 mW microwave power, 100 kHz modulation frequency and 0.1 mT modulation amplitude. The field was scanned from 331.3 mT to 343.3 mT and a single scan was acquired.

NDM-1 in E. coli NDM-1 = NDM-1 in E. coli NDM-1 (Klebsiella pneumoniae, UniProt C7C422); conditions: E. coli NDM-1, nitrocefin
Experimental: shaking at 180 rpm for 18 hours. The overnight suspensions were subcultured (1:100) in fresh LB and incubated to yield an OD600 of 0.55-0.60. The were harvested and pelleted at 3500  g for 15 minutes at 4 °C. The pellets were washed with PBS and pelleted again under the same
conditions. The bacteria were then stored as pellets at 4 C until required for the assay and to
be used within 5 hours. To prepare the bacteria fo r the assay, a pellet was resuspended in an
adjusted volume of fresh PBS to achieve an OD600 ≈ 5.0 and then kept at 4 C for 1 hr before
being used. The bacteria were then diluted to OD600 ≈ 2.0 in fresh PBS and used immediately.
inhibitor control, and one row of Bacteria Buffer B (50 µL) which served as a no-bacteria
control (providing five rows in total). Bacteria stock (OD600 ≈ 2.0, 40 µL, final concentration
of bacteria in well = OD600 ≈ 0.8) was added to each well of the first four rows, the plate was
sealed, and the samples then pre-incubated for 60 min under either ‘dark’ or ‘light’ conditions
Under ‘dark’ conditions, the plate was left sealed in a
substrate in well = 100 µM) was conducted manually and then the plate immediately resealed
substrate had been completely consumed. Method conditions are as follows: cycle time = 100

RAW264.7 = conditions: RAW

Sequence of NDM-1 in E. coli NDM-1 (C7C422 29-270 limits assumed): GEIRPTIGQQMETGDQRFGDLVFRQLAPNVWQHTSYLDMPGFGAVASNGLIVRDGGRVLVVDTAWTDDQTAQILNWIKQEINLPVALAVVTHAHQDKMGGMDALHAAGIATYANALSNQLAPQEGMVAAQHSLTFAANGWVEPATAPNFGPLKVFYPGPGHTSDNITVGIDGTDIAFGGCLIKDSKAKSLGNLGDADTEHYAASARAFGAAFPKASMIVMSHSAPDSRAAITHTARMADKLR

F[P-](F)(F)(F)(F)F.F[P-](F)(F)(F)(F)F.[Ru+2].c1ccc(-c2ccccn2)nc1.c1ccc(-c2ccccn2)nc1.c1ccc(-n2cnc3c4cccnc4c4ncccc4c32)cc1 [Ru2, [Ru(2,2'-bipyridine)2(1-phenyl-imidazo[4,5,f][1,10]phenanthroline)](PF6)2]
Light dose up to which complex is stable [1]: ≥ 23 J cm^–2 | IC50(dark) (NDM-1 in E. coli NDM-1; dark): no inhibition | IC50(light) (NDM-1 in E. coli NDM-1; light 450 nm, 60 J cm^-2): no inhibition | MIC (E. coli NDM-1; E. coli NDM-1, dark and light samples equivalent): >160 µM | Fold change in Meropenem MIC (E. coli NDM-1; compound 5 μM, dark): 0 fold | Fold change in Meropenem MIC (E. coli NDM-1; compound 5 μM, light 450 nm, 60 J cm^-2): 0 fold | Fold change in Meropenem MIC (E. coli NDM-1; compound 10 μM, dark): 0 fold | Fold change in Meropenem MIC (E. coli NDM-1; compound 10 μM, light 450 nm, 60 J cm^-2): 0 fold | Fold change in Meropenem MIC (E. coli NDM-1; compound 20 μM, dark): 0 fold | Fold change in Meropenem MIC (E. coli NDM-1; compound 20 μM, light 450 nm, 60 J cm^-2): 0 fold | Fold change in Meropenem MIC (E. coli NDM-1; compound 40 μM, dark): 0 fold | Fold change in Meropenem MIC (E. coli NDM-1; compound 40 μM, light 450 nm, 60 J cm^-2): 0 fold | Fold change in Meropenem MIC (E. coli NDM-1; compound 80 μM, dark): 0 fold | Fold change in Meropenem MIC (E. coli NDM-1; compound 80 μM, light 450 nm, 60 J cm^-2): 0 fold | LD50 (HEK293T; 24 h): > 50 µM | LD50 (HEK293T; 48 h): > 50 µM | LD50 (RAW264.7; 24 h): > 50 µM | LD50 (RAW264.7; 48 h): > 50 µM
